In patent US20090176817A1, “Method of Treatment of Diarrhea-Predominant Irritable Bowel Syndrome in a Subject” (priority 2005, published 2009):
Marks after values point to notes of the source that are not given here.

Legend:
healthy subjects [1] = assay: Study K.241.5009: esophageal motility; assay type: in vivo, human; conditions: mean
Procedure: The effect of cilansetron on esophageal motility was evaluated in a randomized, double-blind, placebo-controlled, 3-way crossover study in 12 male healthy subjects (ITT population), aged 32-62 years. Subjects received placebo, cilansetron 4 mg, or cilansetron 8 mg administered orally TID for 7 days during each of the 3 periods, with a 7-day washout between periods. Before conduct of esophageal distension tests using an intraesophageal balloon, primary esophageal motility was induced by at least 5 wet swallows of 5 mL water and […] manometrically registered. Amplitude and duration of esophageal contractions were measured in 3 channels proximal and distal to the balloon and the velocity of propagation of contractions was […] measured over the 2 inter-channel intervals. […] For velocity of propagation, a slight trend towards […] reduced velocity with increasing cilansetron dose was found in the 7-2 cm interval but not in the 17-7 cm interval, and there was no effects seen on onset in either interval.

healthy subjects [2] = assay: Study K.241.5012: colonic transit time, healthy young subjects; assay type: in vivo, human; conditions: mean (SD); for Transit Times, Colon Total: null hypothesis not rejected vs placebo
Description: The effect of cilansetron on gastric emptying time and colonic transit time has been studied in 1 clinical study in healthy young subjects and 2 studies in elderly subjects. For measurement of gastric emptying time, breath samples for the determination of the ^12C/^13C ratio were taken on the last day of each treatment period immediately after ingestion of a ^13C labeled meal. The patients' breath was collected in separate 15-minute intervals, for four hours in total. ^13CO2 measurements were performed with an isotope ratio mass spectrometer. The half-life (TK) and lag-time (Tlag), which describe the duration of gastric emptying, were used as the primary parameters to evaluate gastric emptying time. In all 3 studies, colonic transit time was measured by administration of radio-opaque markers for the last six days of each treatment period, followed by a single abdominal X-ray image at 24 hours after ingestion of the last set of markers. The numbers of markers within the colon were used to calculate segmental (right colon, left colon, and rectosigmoid) and total colonic transit time.
Study K.241.5013 was a randomized, double-blind, placebo-controlled, 3-way crossover study in 12 healthy male subjects (ITT population), aged 20-27 years. Subjects received cilansetron 4 mg, cilansetron 8 mg, or placebo orally TID for 14 days during each of the treatment periods, with a 14-day washout between periods. The primary efficacy parameter was the total mean colonic transit time during each treatment and the secondary parameters were the segmental colonic transit times and the gastric emptying measurements. A one-sided Dunnett t-test procedure was used to compare efficacy parameters between the cilansetron and placebo treatments.

[3] = system: CYP2A6, CYP2B6, CYP2C9, CYP2D6, and CYP2E1
Procedure: The CYP mRNA induction potentials of cilansetron and its two main metabolites, (4S)-hydroxy and (4R)-hydroxy cilansetron, were determined in human hepatocytes and compared to three model inducers, 3-methylcholantrene, phenobarbital, and rifampin.

clinical = conditions: human, in vivo, 16 mg
Procedure: In a single-dose, crossover study conducted to evaluate the potential for a drug-drug interaction between liquid Maalox and cilansetron, 12 male and 12-female subjects (aged 19-39 years) received single doses of cilansetron 16 mg alone and cilansetron 16 mg+Maalox in a crossover fashion under fasted conditions. Blood samples for measurement of plasma cilansetron pharmacokinetics were collected up to 24 hours postdose following each treatment.
The effect of concomitantly administered antacid (liquid Maalox) on the pharmacokinetics of cilansetron has been evaluated in a single-dose, crossover study in 24 healthy, male and female subjects, aged 19 to 39 years. Subjects received the following two treatments during each of the study periods in a crossover fashion: a single oral dose of cilansetron 16 mg tablet (reference treatment); a single oral dose of cilansetron 16 mg tablet+20 mL oral Maalox liquid administered every 4 hours (test treatment; 4 doses of Maalox in total; cilansetron was administered 5 minutes after the first dose of Maalox). Both cilansetron treatments were administered under fasted conditions.

[4] = channel 2 cm, 4 mg TID oral 7 days
[5] = channel 2 cm, 8 mg TID oral 7 days
[6] = channel 7 cm, 4 mg TID oral 7 days
[7] = channel 7 cm, 8 mg TID oral 7 days
[8] = channel 17 cm, 4 mg TID oral 7 days
[9] = channel 17 cm, 8 mg TID oral 7 days
[10] = inter-channel interval 7-2 cm, 4 mg TID oral 7 days
[11] = inter-channel interval 7-2 cm, 8 mg TID oral 7 days
[12] = inter-channel interval 17-7 cm, 4 mg TID oral 7 days
[13] = inter-channel interval 17-7 cm, 8 mg TID oral 7 days

## Cc1nccn1C[C@H]1CCc2c(c3cccc4c3n2CCC4)C1=O [Cilansetron, (R)-(−)-4,5,6,8,9,10-hexahydro-10-[(2-methyl-1H-imidazol-1-yl)methyl]-11H-pyrido-[3,2,1-jk]-carbazol-11-one]
Healthy subjects [1]; [4]
  Contraction Force Amplitude, Absolute Values: 88.3 mmHg
  Contraction Force Amplitude, Change from Placebo: −4.2 mmHg
  Contraction Force Duration, Absolute Values: 4.5 s
  Contraction Force Duration, Change from Placebo: -0.0 s
Healthy subjects [1]; [5]
  Contraction Force Amplitude, Absolute Values: 85.5 mmHg
  Contraction Force Amplitude, Change from Placebo: −7.1 mmHg
  Contraction Force Duration, Absolute Values: 5.0 s
  Contraction Force Duration, Change from Placebo: 0.4 s
Healthy subjects [1]; [6]
  Contraction Force Amplitude, Absolute Values: 84.7 mmHg
  Contraction Force Amplitude, Change from Placebo: −3.6 mmHg
  Contraction Force Duration, Absolute Values: 3.7 s
  Contraction Force Duration, Change from Placebo: -0.5 s
Healthy subjects [1]; [7]
  Contraction Force Amplitude, Absolute Values: 85.4 mmHg
  Contraction Force Amplitude, Change from Placebo: −2.8 mmHg
  Contraction Force Duration, Absolute Values: 4.0 s
  Contraction Force Duration, Change from Placebo: -0.2 s
Healthy subjects [1]; [8]
  Contraction Force Amplitude, Absolute Values: 61.5 mmHg
  Contraction Force Amplitude, Change from Placebo: −5.3 mmHg
  Contraction Force Duration, Absolute Values: 3.0 s
  Contraction Force Duration, Change from Placebo: 0.1 s
Healthy subjects [1]; [9]
  Contraction Force Amplitude, Absolute Values: 59.3 mmHg
  Contraction Force Amplitude, Change from Placebo: −7.5 mmHg
  Contraction Force Duration, Absolute Values: 2.9 s
  Contraction Force Duration, Change from Placebo: -0.0 s
Healthy subjects [1]; [10]
  Velocity of Propagation, Onset, Absolute Values: 3.7 cm/sec
  Velocity of Propagation, Onset, Change from Placebo: 0.4 cm/sec
  Velocity of Propagation, Peak, Absolute Values: 3.6 cm/sec
  Velocity of Propagation, Peak, Change from Placebo: −0.2 cm/sec
Healthy subjects [1]; [11]
  Velocity of Propagation, Onset, Absolute Values: 3.5 cm/sec
  Velocity of Propagation, Onset, Change from Placebo: 0.2 cm/sec
  Velocity of Propagation, Peak, Absolute Values: 3.3 cm/sec
  Velocity of Propagation, Peak, Change from Placebo: −0.5 cm/sec
Healthy subjects [1]; [12]
  Velocity of Propagation, Onset, Absolute Values: 2.3 cm/sec
  Velocity of Propagation, Onset, Change from Placebo: 0.0 cm/sec
  Velocity of Propagation, Peak, Absolute Values: 2.8 cm/sec
  Velocity of Propagation, Peak, Change from Placebo: 0.1 cm/sec
Healthy subjects [1]; [13]
  Velocity of Propagation, Onset, Absolute Values: 2.3 cm/sec
  Velocity of Propagation, Onset, Change from Placebo: −0.0 cm/sec
  Velocity of Propagation, Peak, Absolute Values: 2.7 cm/sec
  Velocity of Propagation, Peak, Change from Placebo: 0.0 cm/sec
Healthy subjects [2]; 4 mg TID oral 14 days
  Transit Times, Colonic Segments Left: 24.2 (12.9) hours
  Transit Times, Colonic Segments Rectosigmold: 15.8 (13.5) hours
  Transit Times, Colonic Segments Right: 9.4 (9.5) hours
  Transit Times, Colon Total: 49.4 (24.6)^a hours
Healthy subjects [2]; 8 mg TID oral 14 days
  Transit Times, Colonic Segments Left: 25.8 (16.7) hours
  Transit Times, Colonic Segments Rectosigmold: 16.2 (11.9) hours
  Transit Times, Colonic Segments Right: 11.8 (13.9) hours
  Transit Times, Colon Total: 53.8 (28.5)^a hours
[3]
  Inductive effect on other CYP isozymes: did not show an inductive effect
clinical; both
  AUC(0-inf): 264 ng·h/mL
  AUC(0-t): 264 ng·h/mL
  Cmax: 102 ng/mL
  Vd/F: 237 L
  half-life: 2.39 h
clinical; female
  AUC(0-inf): 361 ng·h/mL
  AUC(0-t): 360 ng·h/mL
  Cmax: 137 ng/mL
  Vd/F: 202 L
  half-life: 2.97 h
clinical; male
  AUC(0-inf): 159 ng·h/mL
  AUC(0-t): 159 ng·h/mL
  Cmax: 63.1 ng/mL
  Vd/F: 276 L
  half-life: 1.75 h
